Measured values reported in patent US6525055B1, “Tricyclic phthalazine derivatives as phosphodiesterase 4 inhibitors” (Zambon Group S.p.A., priority 1998, dated 2003).

Target: PDE 4 enzyme
Experiment: PDE 4 enzyme inhibition (SPA)
Assay type: biochemical
Conditions: PDE 4 purified from human PMNs, cAMP 1 μM, 40 minutes at 30° C.
Excerpt: Evaluation of the PDE 4 Enzyme Inhibition a) Purification of Human Polymorphonucleate Leukocytes
The polymorphonucleate leukocytes (PMNs) were isolated from peripheral blood of healthy volunteers according to what described by Boyum A., Scand. J. Immunol., 1976, 5th suppl., 9). Shortly, the isolation of the PMNs was effected by Ficoll-Paque gradient centrifugation followed by sedimentation on dextrane and the erythrocyte contamination was eliminated by hypotonic lysis. […]
b) PDE 4 Enzyme Purification
The human PMNs were re-suspended in TRIS/HCl buffer (10 mM pH 7.8) containing MgCl2 (5 mM), EGTA (4 mM), mercaptoethanol (5 mM), TRlTON-X100 (1%), pepstatin A (1 μM), PMSF (100 μM) and leupeptin (1 μM), and homogenised by Polytron. […]
The enzyme activity was evaluated with an Amersham kit based on the SPA (Scintillation Proximity Assay) technique. […] The radioactivity due to the particles was measured in a […]. The results are expressed as percent activity versus the control present in each experiment. The IC50 values were calculated over 9 equidistant concentrations in logarithmic scale using a 4-parameters logistic function by software.

- IC50: 207 nM
Compound: COc1ccc2c(Cc3c(Cl)cncc3Cl)nn3c(C)nnc3c2c1 [Compound 2, 6-(3,5-Dichloro-pyridin-4-ylmethyl)-9-methoxy-3-methyl-[1,2,4]-triazole-[3,4-a]-phthalazine]
